Measurements as given in patent publication US20200288711A1, “Pyrimidin-4-Carbamate or Urea Derivatives As Herbicides” (Syngenta Participations AG, priority 2017, published 2020).

Tests used:
Format in all cases: in vivo
[1] = system: Abutilon theophrasti (ABUTH); assay: B1 pre-emergence herbicidal activity; design: key: 5=total damage to plant; 0=no damage to plant; details: Test 1a, rate 1000 g/ha, evaluated after 13 days, score 0-5 (5=total damage, 0=no damage)
Experimental: (§1) Seeds of a variety of test species were sown in standard soil in pots: Triticum aestivium (TRZAW), Avena fatua (AVEFA), Alopecurus myosuroides (ALOMY), Echinochloa crus-galli (ECHCG), Lolium perenne (LOLPE), Zea mays (ZEAMX), Abutilon theophrasti (ABUTH), Amaranthus retroflexus (AMARE) and Setaria faberi (SETFA). After cultivation for one day (pre-emergence) under controlled conditions in a glasshouse (at 24/16° C., day/night; 14 hours light; 65% humidity), the plants were sprayed with an aqueous spray solution derived from the formulation of the technical active ingredient in acetone/water (50:50) solution containing 0.5% Tween 20 (polyoxyethelyene sorbitan monolaurate, CAS RN 9005-64-5). The test plants were then grown in a glasshouse under controlled conditions (at 24/16° C., day/night; 14 hours light; 65% humidity) and watered twice daily. After 13 days, the test was evaluated (5=total damage to plant; 0=no damage to plant).

[2] = system: Amaranthus retroflexus (AMARE); assay: B1 pre-emergence herbicidal activity; design: key: 5=total damage to plant; 0=no damage to plant; details: Test 1a, rate 1000 g/ha, evaluated after 13 days, score 0-5 (5=total damage, 0=no damage)
Experimental: as §1

Lolium perenne (LOLPE) [3] = assay: B1 pre-emergence herbicidal activity; design: key: 5=total damage to plant; 0=no damage to plant; details: Test 1a, rate 1000 g/ha, evaluated after 13 days, score 0-5 (5=total damage, 0=no damage)
Experimental: as §1

Zea mays (ZEAMX) [4] = assay: B1 pre-emergence herbicidal activity; design: key: 5=total damage to plant; 0=no damage to plant; details: Test 1a, rate 1000 g/ha, evaluated after 13 days, score 0-5 (5=total damage, 0=no damage)
Experimental: as §1

Setaria faberi (SETFA) [5] = assay: B1 pre-emergence herbicidal activity; details: Test 1a, rate 1000 g/ha, evaluated after 13 days, score 0-5 (5=total damage, 0=no damage)
Experimental: as §1

[6] = system: Echinochloa crus-galli (ECHCG); assay: B1 pre-emergence herbicidal activity; details: Test 1a, rate 1000 g/ha, evaluated after 13 days, score 0-5 (5=total damage, 0=no damage)
Experimental: as §1

[7] = system: Amaranthus retroflexus (AMARE); assay: B2 post-emergence herbicidal activity; design: key: 5=total damage to plant; 0=no damage to plant; details: Test 2a, rate 1000 g/ha, evaluated after 13 days, score 0-5 (5=total damage, 0=no damage)
Experimental: (§2) Seeds of a variety of test species were sown in standard soil in pots: Triticum aestivium (TRZAW), Avena fatua (AVEFA), Alopecurus myosuroides (ALOMY), Echinochloa crus-galli (ECHCG), Lolium perenne (LOLPE), Zea mays (ZEAMX), Abutilon theophrasti (ABUTH), Amaranthus retroflexus (AMARE) and Setaria faberi (SETFA). After 8 days cultivation (post-emergence) under controlled conditions in a glasshouse (at 24/16° C., day/night; 14 hours light; 65% humidity), the plants were sprayed with an aqueous spray solution derived from the formulation of the technical active ingredient in acetone/water (50:50) solution containing 0.5% Tween 20 (polyoxyethelyene sorbitan monolaurate, CAS RN 9005-64-5). The test plants were then grown in a glasshouse under controlled conditions (at 24/16° C., day/night; 14 hours light; 65% humidity) and watered twice daily. After 13 days, the test was evaluated (5=total damage to plant; 0=no damage to plant).

[8] = system: Echinochloa crus-galli (ECHCG); assay: B2 post-emergence herbicidal activity; design: key: 5=total damage to plant; 0=no damage to plant; details: Test 2a, rate 1000 g/ha, evaluated after 13 days, score 0-5 (5=total damage, 0=no damage)
Experimental: as §2

Lolium perenne (LOLPE) [9] = assay: B2 post-emergence herbicidal activity; design: key: 5=total damage to plant; 0=no damage to plant; details: Test 2a, rate 1000 g/ha, evaluated after 13 days, score 0-5 (5=total damage, 0=no damage)
Experimental: as §2

Setaria faberi (SETFA) [10] = assay: B2 post-emergence herbicidal activity; design: key: 5=total damage to plant; 0=no damage to plant; details: Test 2a, rate 1000 g/ha, evaluated after 13 days, score 0-5 (5=total damage, 0=no damage)
Experimental: as §2

Zea mays (ZEAMX) [11] = assay: B2 post-emergence herbicidal activity; design: key: 5=total damage to plant; 0=no damage to plant; details: Test 2a, rate 1000 g/ha, evaluated after 13 days, score 0-5 (5=total damage, 0=no damage)
Experimental: as §2

[12] = system: Abutilon theophrasti (ABUTH); assay: B2 post-emergence herbicidal activity; details: Test 2a, rate 1000 g/ha, evaluated after 13 days, score 0-5 (5=total damage, 0=no damage)
Experimental: as §2

Question: How did the “Control of weed species after pre-emergence application, ABUTH” value [1] turn out when `Cc1nc(-c2cncc(F)c2)ncc1N(C)C(=O)OC(C)(C)C` [Compound E2, tert-butyl N-[2-(5-fluoro-3-pyridyl)-4-methyl-pyrimidin-5-yl]-N-methyl-carbamate] was run?
Answer: 0

Question: And the “Control of weed species after pre-emergence application, AMARE” value [2]?
Answer: 0

Question: What about the “Control of weed species after pre-emergence application, LOLPE” value (Lolium perenne (LOLPE) [3]) of the same compound?
Answer: 0

Question: And the “Control of weed species after pre-emergence application, ZEAMX” value (Zea mays (ZEAMX) [4])?
Answer: 4

Question: What about the “Control of weed species after pre-emergence application, SETFA” value (Setaria faberi (SETFA) [5]) of the same compound?
Answer: 4

Question: What about the “Control of weed species after pre-emergence application, ECHCG” value [6] of the same compound?
Answer: 2

Question: What about the “Control of weed species after post-emergence application, AMARE” value [7] of the same compound?
Answer: 0

Question: And the “Control of weed species after post-emergence application, ECHCG” value [8]?
Answer: 5

Question: And the “Control of weed species after post-emergence application, LOLPE” value (Lolium perenne (LOLPE) [9])?
Answer: 2

Question: And the “Control of weed species after post-emergence application, SETFA” value (Setaria faberi (SETFA) [10])?
Answer: 5

Question: And the “Control of weed species after post-emergence application, ZEAMX” value (Zea mays (ZEAMX) [11])?
Answer: 5

Question: And the “Control of weed species after post-emergence application, ABUTH” value [12]?
Answer: 1
